According to patent US20250034079A1, “PROCESS FOR RECOVERING AMINOBENZOIC ACID FROM AN AQUEOUS MOTHER LIQUOR” (Covestro Deutschland AG, priority 2021, published 2025):
Converted amounts (≈) assume the structure as drawn.

Tests used:
[1] = physchem; details: for solubility: water; for Solubility in water at RT: solubility of the extractant
Description: (§1) The remaining mother liquor was extracted in one stage with various solvents (step (C)). […] The extraction was conducted at 30° C. The experiments were assessed by ascertaining the partition coefficients K (=ratio of the ortho-aminobenzoic acid [oAB] concentration in g/L in the organic phase [ORG=first alcoholic phase] to the aqueous phase [AQ=first aqueous phase]), the solubilities of the extractant in the aqueous phase after the extraction (=first aqueous phase) and—in four cases—the proportion by mass of organic secondary components (SC) in the organic extract phase (=first alcoholic phase) based on the totality of the organic secondary components in the two phases (=m(SC)ORG/m(SC)TOT). For this purpose, a separation was conducted by HPLC; organic impurities that elute earlier than ortho-aminobenzoic acid are referred to collectively as polar secondary components, and organic impurities that elute later than ortho-aminobenzoic acid as nonpolar secondary components.

[2] = One-stage extraction of ortho-aminobenzoic acid from crystallization mother liquor with various extractants (partition coefficient); details: pH 3.5±0.2, 8.7 g/L oAB, phase ratio organic to aqueous 0.5, 30° C.
Description: For the evaluation of the distribution of a component between two phases, the two phases were analyzed by HPLC-MS (with identical sample preparation and method). The coefficients of distribution were then determined as the ratio of peak areas for the same retention time.
as §1

| Structure (SMILES) | solubility [1] [µg/mL] | Solubility in water at RT [1] | further results |
| --- | --- | --- | --- |
| CCCCCCCCCCO [1-Decanol] | 40 (≈ 253 µM) |  |  |
| CCC(C)=O [2-Butanone] |  |  | K = c(oAB)ORG/c(oAB)AQ (partition coefficient of ortho-aminobenzoic acid, organic to aqueous phase) [2]: 26.12 |
| CCCCOC(C)=O [Butyl acetate] | ~6000 |  |  |
| CC1CCCC1 [Methylcyclopentane] |  | insoluble |  |
| CCCCCCCC/C=C\CCCCCCCCO [Oleyl alcohol] |  | insoluble |  |
